In patent publication US20260259169A1, “BETA-LACTAMASE SUBSTRATE COMPOUNDS AND ELECTROCHEMICAL DETECTION METHODS USING THEM” (priority 2023, published 2026):

Tests used:
[1] = tested on: bacteria strains that produce NDM; experiment: Amperometric detection in blood culture; format: cell-based; conditions: CF3 6.0 mM, HMRZ-86 1.2 mM
Procedure: (§1) The possibility of the beta-lactamase substrate compounds to detect bacteria strains producing different beta-lactamases was tested for the reference HMRZ-86 of example 1 (at 1.2 mM) and the beta-lactamase substrate compound with R being 2-nitro-4-cyano of Example 1 (at 2.4 mM). […] Consequently, amperometric voltammetry of the negative control with ATCC should give an oxidation current of 0 nA for the measurement to be valid.
(§2) The beta-lactamase with group β being CF3 (6.0 mM), as well as the reference HMRZ-86 (1.2 mM) were also tested with blood cultures comprising bacteria strains producing the carbapenemase KPC type, the metallo-beta-lactamase VIM type and the metallo-beta-lactamase NDM type, as well as a blood culture comprising no bacteria strains producing beta-lactamases (negative control ATCC).

[2] = tested on: bacteria strains that produce VIM type; experiment: Amperometric detection in blood culture; format: cell-based; conditions: CF3 6.0 mM, HMRZ-86 1.2 mM
Procedure: as §1, §2

[3] = tested on: bacteria strains producing the carbapenemase KPC type; experiment: Amperometric detection in blood culture; format: cell-based; conditions: CF3 6.0 mM, HMRZ-86 1.2 mM
Procedure: as §2

[4] = NMR stability study in relation to a dimethylformamide (DMF) reference; format: physicochemical; conditions: for degradation: DMF reference
Procedure: More particularly, when the degradation is determined by means of NMR measurements, a first sample comprising the beta-lactamase substrate compound according to the present disclosure and a second sample comprising the reference, e.g. DMF, are heated or cooled to a predefined temperature, after which the NMR measurement is performed on both samples (measurement at time=0). The same measurement is repeated on the samples after a predefined time (time=x), while their temperature is kept constant at the predefined temperature from time=0 to time=x. The difference of the integration of NMR measurement signals of both samples is determined by comparing between time=0 and time=x, thereby allowing to define the degree (percentage) of degradation of the beta-lactamase substrate compound at time=x.
(§3) The stability of the beta-lactamase substrate compounds over time at different temperatures was tested the reference HMRZ-86 of example 1 (at 1.2 mM) and the beta-lactamase substrate compound with R being 2-nitro-4-cyano of Example 1 (at 2.4 mM).
The stability was tested by a NMR stability study. The degradation was measured by measuring the evolution of the integration of NMR measurement signals of the molecule in relation to a dimethylformamide (DMF) reference. The stability of the beta-lactamase substrate compound is expressed by the percentage of degradation in function of time.
The stability of all 3 beta-lactamase substrate compounds (R being 4-cyanophenyl, group β being H, CH3 and CF3, respectively), as well as the beta-lactamase having the same group R and a group β according to formula II was tested at 20° C. in DMF as reference.

CTX-M-2 = CTX-M-2 (Salmonella typhimurium, UniProt P74841); experiment: Reactivity with recombinant enzyme, amperometric; format: biochemical; conditions: class A ESBL, protein; CF3 compound 2.4 mM, HMRZ-86 1.2 mM; 10 minutes at 37° C.
CTX-M-15 = CTX-M-15 (Escherichia coli, UniProt Q9EXV5); experiment: Reactivity with recombinant enzyme, amperometric; format: biochemical; conditions: class A ESBL, protein; CF3 compound 2.4 mM, HMRZ-86 1.2 mM; 10 minutes at 37° C.
IMP-3 = experiment: Reactivity with recombinant enzyme, amperometric; format: biochemical; conditions: class B metallo-beta-lactamase, protein; CF3 compound 2.4 mM, HMRZ-86 1.2 mM; 10 minutes at 37° C.
IMP-16 = experiment: Reactivity with recombinant enzyme, amperometric; format: biochemical; conditions: class B metallo-beta-lactamase, protein; CF3 compound 2.4 mM, HMRZ-86 1.2 mM; 10 minutes at 37° C.
IMP-18 = experiment: Reactivity with recombinant enzyme, amperometric; format: biochemical; conditions: class B metallo-beta-lactamase, protein; CF3 compound 2.4 mM, HMRZ-86 1.2 mM; 10 minutes at 37° C.
IMP-31 = experiment: Reactivity with recombinant enzyme, amperometric; format: biochemical; conditions: class B metallo-beta-lactamase, protein; CF3 compound 2.4 mM, HMRZ-86 1.2 mM; 10 minutes at 37° C.
NDM-1 = NDM-1 (Klebsiella pneumoniae, UniProt C7C422); experiment: Reactivity with recombinant enzyme, amperometric; format: biochemical; conditions: class B metallo-beta-lactamase, protein; CF3 compound 2.4 mM, HMRZ-86 1.2 mM; 10 minutes at 37° C.
VIM-5 = experiment: Reactivity with recombinant enzyme, amperometric; format: biochemical; conditions: class B metallo-beta-lactamase, protein; CF3 compound 2.4 mM, HMRZ-86 1.2 mM; 10 minutes at 37° C.
VIM-11 = experiment: Reactivity with recombinant enzyme, amperometric; format: biochemical; conditions: class B metallo-beta-lactamase, protein; CF3 compound 2.4 mM, HMRZ-86 1.2 mM; 10 minutes at 37° C.
OXA-23 = OXA-23 (Acinetobacter baumannii, UniProt Q9L4P2); experiment: Reactivity with recombinant enzyme, amperometric; format: biochemical; conditions: class D carbapenemase, protein; CF3 compound 2.4 mM, HMRZ-86 1.2 mM; 10 minutes at 37° C.
OXA-40 = experiment: Reactivity with recombinant enzyme, amperometric; format: biochemical; conditions: class D carbapenemase, protein; CF3 compound 2.4 mM, HMRZ-86 1.2 mM; 10 minutes at 37° C.
OXA-58 = experiment: Reactivity with recombinant enzyme, amperometric; format: biochemical; conditions: class D carbapenemase, protein; CF3 compound 2.4 mM, HMRZ-86 1.2 mM; 10 minutes at 37° C.
OXA-51 = experiment: Reactivity with recombinant enzyme, amperometric; format: biochemical; conditions: class D carbapenemase, protein; CF3 compound 2.4 mM, HMRZ-86 1.2 mM; 10 minutes at 37° C.
OXA-143 = experiment: Reactivity with recombinant enzyme, amperometric; format: biochemical; conditions: class D carbapenemase, protein; CF3 compound 2.4 mM, HMRZ-86 1.2 mM; 10 minutes at 37° C.
OXA-163 = conditions: class D carbapenemase, protein; CF3 compound 2.4 mM, HMRZ-86 1.2 mM; 10 minutes at 37° C.
[5] = NMR stability study in relation to a 22 mM succinate buffer reference; format: physicochemical
Procedure: as §3
The stability of both beta-lactamase substrate compounds was also tested in relation to a 22 mM succinate buffer reference. […] Contrary to the dimethylformamide (DMF) reference, the degradation in relation to the succinate buffer was similar for both substrate compounds, with the first degradation starting after 2 weeks at both temperatures.

N#Cc1ccc(C=CC2=C(C(=O)O)N3C(=O)C(NC(=O)C(F)(F)F)C3SC2)cc1 (centres unmarked) [CF3]
detection (oxidation current) [1]: do not detect
detection (oxidation current) [2]: capable of detecting
detection (oxidation current) [3]: capable of detecting
time of first signs of degradation [4]: 1 weeks
reactivity (detection) (CTX-M-2): Detected
reactivity (detection) (CTX-M-15): Detected
reactivity (detection) (IMP-3): Detected
reactivity (detection) (IMP-16): Detected
reactivity (detection) (IMP-18): Detected
reactivity (detection) (IMP-31): Detected
reactivity (detection) (NDM-1): Detected
reactivity (detection) (VIM-5): Detected
reactivity (detection) (VIM-11): Detected
reactivity (detection) (OXA-23): Detected
reactivity (detection) (OXA-40): Detected
reactivity (detection) (OXA-58): Detected
reactivity (detection) (OXA-51): Detected
reactivity (detection) (OXA-143): Detected
reactivity (detection) (OXA-163): Detected

CC(C)(ON=C(C(=O)N[C@@H]1C(=O)N2C(C(=O)O)=C(C=Cc3ccc([N+](=O)[O-])cc3[N+](=O)[O-])CS[C@H]12)c1csc(N)n1)C(=O)O.O=C(O)C(F)(F)F [HMRZ-86, reference compound]
detection (oxidation current) [1]: do not detect
detection (oxidation current) [2]: capable of detecting
detection (oxidation current) [3]: capable of detecting
degradation ([4]; 4° C., after 1 day): over 50%
degradation ([4]; 20° C., after 1 week): ~60%
degradation ([4]; 20° C., after 18 weeks): over 90%
degradation ([4]; 20° C., after 1 day): ~60%
degradation over time ([4]; temperatures between 4° C. and 20° C.): significant degradation over time
time at which the first degradation starts ([5]; 4° C.): 2 weeks
time at which the first degradation starts ([5]; 20° C.): 2 weeks
reactivity (detection) (CTX-M-2): Detected
reactivity (detection) (CTX-M-15): Detected
reactivity (detection) (IMP-3): Detected
reactivity (detection) (IMP-16): Detected
reactivity (detection) (IMP-18): Detected
reactivity (detection) (IMP-31): Detected
reactivity (detection) (NDM-1): Detected
reactivity (detection) (VIM-5): Detected
reactivity (detection) (VIM-11): Detected
reactivity (detection) (OXA-23): Not detected
reactivity (detection) (OXA-40): Not detected
reactivity (detection) (OXA-58): Not detected
reactivity (detection) (OXA-51): Not detected
reactivity (detection) (OXA-143): Detected
reactivity (detection) (OXA-163): Detected
